Measured values published in patent EP4603105A1, “PHARMACEUTICAL COMPOSITION CONTAINING CYCLIC COMPOUND HAVING SELECTIVE KRAS INHIBITORY EFFECT AGAINST HRAS AND NRAS” (CHUGAI SEIYAKU KABUSHIKI KAISHA, priority 2022, dated 2024).
pIC50: −log10 of the molar value. Where a SMILES comes first, the peptide text is derived from it. Bridges are numbered along the chain shown (N, C = ends). [ ]: non-standard residue; d: D form. hPhe(3-Cl-4-CF3) = N[C@@H](CCc1ccc(C(F)(F)F)c(Cl)c1)C(=O)O; NPrPhe(4-CF3) = CCCN[C@@H](Cc1ccc(C(F)(F)F)cc1)C(=O)O; NMeGly(cPent) = CN[C@H](C(=O)O)C1CCCC1; NMeL = CN[C@@H](CC(C)C)C(=O)O; Ac4c = NC1(C(=O)O)CCC1; Sar = CNCC(=O)O

Experiments:
[1] = biological target: GDP-bound NRAS wild-type protein (Homo sapiens, UniProt P01111); assay: Binding to NRAS by surface plasmon resonance (SPR), KD and KD ratio to KRAS
Summary of the method: (§1)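 SPR, 30°C: Avi-biotin RAS·GDP captured via Biotin CAPture (~100–300 RU); running buffer HBS pH 7.4, 1 mM DTT, 10 mM MgCl2, 0.01% Tween 20, 10 µM GDP, 4% DMSO. Single-cycle kinetics, 100 µL/min, 75 s injections; 1:1 model → KD.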

[2] = biological target: HRAS wild-type protein (Homo sapiens, UniProt P01112); assay: Binding to HRAS by surface plasmon resonance (SPR), KD and KD ratio to KRAS
Summary of the method: as §1

[3] = system: human lung cancer strain NCI-H441; type: cell-based
Summary of the method: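 Proliferation was scored by […] measured after the reagent was added to cultures kept at 37°C in 5% carbon dioxide.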

[4] = ratio of KD for GDP-bound NRAS wild-type protein to KD for KRAS
[5] = ratio of KD for HRAS wild-type protein to KD for KRAS
[6] = ratio of the KD value with respect to GDP-bound NRAS wild-type protein to the KD value with respect to KRAS
[7] = ratio of the KD value with respect to HRAS wild-type protein to the KD value with respect to KRAS

HRAS wild-type protein, sequence (P01112 whole entry): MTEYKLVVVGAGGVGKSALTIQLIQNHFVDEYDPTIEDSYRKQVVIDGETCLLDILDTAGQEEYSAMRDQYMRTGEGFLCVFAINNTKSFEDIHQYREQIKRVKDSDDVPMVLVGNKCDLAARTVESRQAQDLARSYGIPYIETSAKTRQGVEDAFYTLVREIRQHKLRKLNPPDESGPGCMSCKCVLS
GDP-bound NRAS wild-type protein, sequence (P01111 whole entry): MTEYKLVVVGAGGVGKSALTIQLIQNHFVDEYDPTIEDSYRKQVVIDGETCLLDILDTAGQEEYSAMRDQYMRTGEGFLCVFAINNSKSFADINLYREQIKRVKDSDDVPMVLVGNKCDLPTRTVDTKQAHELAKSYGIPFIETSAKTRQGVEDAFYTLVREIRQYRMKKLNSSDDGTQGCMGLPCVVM

| pIC50 [3] | SMILES | NRAS /KRAS [1, 4] | HRAS /KRAS [2, 5] | NRAS /KRAS [1, 6] | HRAS /KRAS [2, 7] | NRAS /KRAS ([1]; ratio of KD value for GDP-bound NRAS wild-type protein to KD value for KRAS (SPR)) | HRAS /KRAS ([2]; ratio of KD value for HRAS wild-type protein to KD value for KRAS (SPR)) |
| --- | --- | --- | --- | --- | --- | --- | --- |
| 7.78 | CCC[C@H]1C(=O)N[C@@H]([C@@H](C)CC)C(=O)N(C)CC(=O)N(C)[C@H]2C/C=C\CCN(C2=O)[C@@H](Cc2ccc(C(F)(F)F)cc2)C(=O)N(C)CC(=O)N[C@@H](CCc2ccc(C(F)(F)F)c(Cl)c2)C(=O)N2C[C@H](OCC)C[C@H]2C(=O)NC2(CC(C)(C)C2)C(=O)N(C)[C@@H](CC(F)(F)F)C(=O)N(C)[C@H](C(=O)N(C)C)CC(=O)N1C [PP2975] | A (a compound having 10 or more and less than 20 is denoted as A) | A (a compound having 10 or more and less than 20 is denoted as A) |  |  |  |  |
| 7.80 | CCO[C@@H]1C[C@H]2C(=O)NC3(CC(C)(C)C3)C(=O)N(C)[C@@H](C(CC)CC)C(=O)N(C)[C@H](C(=O)N(C)C)CC(=O)N(C)[C@@H](C(C)C)C(=O)N[C@@H]([C@@H](C)CC)C(=O)N(C)CC(=O)N(C)[C@H]3C/C=C\CCN(C3=O)[C@@H](Cc3ccc(C(F)(F)F)cc3)C(=O)N(C)CC(=O)N[C@@H](CCc3cc(F)c(C(F)(F)F)c(F)c3)C(=O)N2C1 [PP2135] |  |  | AA (a compound having 20 or more is denoted as AA) | A (a compound having 10 or more and less than 20 is denoted as A) |  |  |
| 6.34 | CC[C@H](C)[C@@H]1NC(=O)[C@H](CC(C)C)NC(=O)C[C@@H](C(=O)N2CCOCC2)N(C)C(=O)[C@H](C2CCCC2)N(C)C(=O)C2(CCCC2)NC(=O)[C@@H]2CCCN2C(=O)[C@H](CCc2cc(F)c(C(F)(F)F)c(F)c2)NC(=O)CN(C)C(=O)[C@H](Cc2ccc(C(F)(F)F)cc2)N2CCCCC[C@@H](C2=O)N(C)C(=O)CN(C)C1=O [PP0516] |  |  | B (a compound having 3 or more and less than 10 is denoted as B) | B (a compound having 3 or more and less than 10 is denoted as B) |  |  |
| 8.68 | CC[C@H](C)[C@@H]1NC(=O)[C@H](CC(C)C)N(C)C(=O)C[C@@H](C(=O)N2CCOCC2)N(C)C(=O)[C@H](C2CCCC2)N(C)C(=O)C2(CCC2)NC(=O)[C@@H]2C[C@@H](OCC(F)F)CN2C(=O)[C@H](CCc2cc(F)c(C(F)(F)F)c(F)c2)NC(=O)CN(C)C(=O)[C@H](Cc2ccc(C(F)(F)F)cc2)N2CCCC[C@@H](C2=O)N(C)C(=O)CN(C)C1=O [PP1002] | B (a compound having 3 or more and less than 10 is denoted as B) | B (a compound having 3 or more and less than 10 is denoted as B) |  |  |  |  |
| 8.15 | CCCN(C)C(=O)[C@@H]1CC(=O)N(C)[C@@H](CC(F)F)C(=O)N[C@@H]([C@@H](C)CC)C(=O)N(C)CC(=O)N(C)[C@H]2C/C=C\CCN(C2=O)[C@@H](Cc2ccc(C(F)(F)F)cc2)C(=O)N(C)CC(=O)N[C@@H](CCc2cc(F)c(Cl)c(F)c2)C(=O)N2C[C@H](OCC)C[C@H]2C(=O)NC2(CC(C)(C)C2)C(=O)N(C)[C@@H](C2CCCC2)C(=O)N1C [PP1757] |  |  |  |  | AA (a compound having 20 or more is denoted as AA) | A (a compound having 10 or more and less than 20 is denoted as A) |
| 7.00 | CCCN1C(=O)CN(C)C(=O)CN(C)C(=O)[C@H]([C@@H](C)CC)NC(=O)[C@H](CC(C)C)N(C)C(=O)C[C@@H](C(=O)N(C)C)NC(=O)[C@H](C2CCCC2)N(C)C(=O)C2(CCC2)NC(=O)[C@@H]2CCCN2C(=O)[C@H](CCc2ccc(C(F)(F)F)c(Cl)c2)NC(=O)CN(C)C(=O)[C@@H]1Cc1ccc(C(F)(F)F)cc1 [PP0356] ([NMeL]I[Sar][Sar][NPrPhe(4-CF3)][Sar][hPhe(3-Cl-4-CF3)]P[Ac4c][NMeGly(cPent)]D-NMe2; lactam N-11) | B (a compound having 3 or more and less than 10 is denoted as B) | B (a compound having 3 or more and less than 10 is denoted as B) |  |  |  |  |
| 6.95 | CCO[C@@H]1C[C@H]2C(=O)NC3(CCCC3)C(=O)N(C)[C@@H](C3CCCC3)C(=O)N(C)[C@H](C(=O)N3CCOCC3)CC(=O)N(C)[C@@H](COC)C(=O)N[C@@H]([C@@H](C)CC)C(=O)N(C)CC(=O)N(C)[C@H]3CCCCCN(C3=O)[C@@H](Cc3ccc(C(F)(F)F)cc3)C(=O)N(C)CC(=O)N[C@@H](CCc3cc(F)c(C(F)(F)F)c(F)c3)C(=O)N2C1 [PP0841] | B (a compound having 3 or more and less than 10 is denoted as B) | B (a compound having 3 or more and less than 10 is denoted as B) |  |  |  |  |
